Results as given in patent US7462480B2, “Stimulation of microbial dechlorination of polychorinated biphenyls with halogenated ethenes” (University of Maryland Biotechnology Institute, priority 2002, dated 2008).

Assays:
[1] = system: O-17; experiment: anaerobic enrichment culture of PCB dechlorinating bacterium O-17 with tetrachloroethene; type: cell-based, bacterium ortho-dechlorinating strain O-17
Description: (§1) Culture Conditions. A sterile media was prepared composed of at least one of the following components in grams per liter (final concentration) of demineralized water: Na2CO3, 3.0; Na2HPO4, 0.6; NH4Cl, 0.5; cysteine-HCl.H2O, 0.25; Na2S.9H2O, 0.25; resazurin, 0.001. In addition, 1% (v/v) each of vitamin and trace element solutions was added. An anaerobic enrichment culture comprising either O-17 (GenBank Accession #: AF058005; Appl Environ Microbiol. 1998 September; 64(9):3359-67)or DF-1 (GenBank Accession #: AF393781; Appl Environ Microbiol. 2002 February; 68(2):807-12)capable of dechlorination of 2,3,5,6-tetrachlorobiphenyl (2,3,5,6-CB) in the absence of sediment was used in this study. Cultures were incubated at 30° C. in the dark. All gases were passed through a column of reduced copper turnings at 350° C. to remove traces of O2. Media (8 ml) were dispersed into culture tubes (16×160 mm) and sealed with Teflon®-lined butyl stoppers (The West Company, Lionville, Pa.) secured by aluminum crimp collars (Bellco Glass, Inc., Vineland, N.J.).
(§2) Congener 2,3,5,6-tetrachlorobiphenyl (2,3,5,6-CB) was also solubilized in tetrachloroethene and added to a fresh anaerobic enrichment culture comprising either O-17 or DF-1 and was incubated under strict anaerobic conditions at 30° C. in the dark. […]

[2] = system: DF-1; experiment: anaerobic enrichment culture of PCB dechlorinating bacterium DF-1 with tetrachloroethene; type: cell-based, bacterium double flank-dechlorinating strain DF-1
Description: as §1, §2

[3] = partially soluble in water; cited from earlier work
[4] = 2,3,5,6-CB solubilized in tetrachloroethene, strict anaerobic conditions, 30° C. in the dark
[5] = PCBs and tetrachloroethene combined, simultaneously dechlorinated

For `ClC(Cl)=C(Cl)Cl` [tetrachloroethene], the “population growth density relative to culture containing 2,3,5,6-CB alone” value [1, 4] was “increased population growth density”, the “effect on PCB dechlorination” value [1, 5] was “did not inhibit or significantly delay PCB dechlorination” and the “population growth density relative to culture containing 2,3,5,6-CB alone” value [2, 4] was “increased population growth density”. For the same compound, the “effect on PCB dechlorination” value [2, 5] was “did not inhibit or significantly delay PCB dechlorination” and the solubility in water [3] was “up to 1 mM”.
